Patent US20230381160A1, “PROPHYLATIC USE OF CALCIUM CHANNEL BLOCKERS IN TUBERCULOSIS” (priority 2020, published 2023)

Tested on: active TB
Test: Nested case-control study (NHIRD): drug use and risk of incident active TB
Assay type: in vivo, human
Conditions: incidence of active TB
From the text: National Health Insurance (NHI) program of Taiwan is a compulsory single-payer system that enrolls approximately 24 million residents with 99.8% coverage. We conducted a nested case-control study using the National Health Insurance Research Database (NHIRD) approved from the institutional review board of National Taiwan University Hospital. The NHIRD used a systematic approach to randomly select one million people from the enrollees of NHI, which represents the age, sex, and geographical region distribution of the Taiwanese population. The computerized NHIRD includes information on patient demographics, outpatient and inpatient electronic claim records, individual diagnoses by ICD-9 CM codes, operations, and prescribed medications. Detailed information regarding the name of the prescribed drugs, route of administration, quantity, and number of days of supply are also available. The study was approved by the Institutional Review Board at National Taiwan University Hospital (No. 201311043RINB). Patients' consent was waived because this is an electronic database study using anonymous subjects.
The study cohort consisted of all adult patients (≥18 years old) from the NHIRD that were followed longitudinally between January 1999 and December 2011. We used 1999 as pre-enrollment periods. TB was defined as those with any code for TB according to the ICD-9 CM codes (ICD-9 CM codes: 010-018, including all subcategories). All participants in the study cohort were followed and contributed person-time from the first day of 2000 until the earliest of the following end points: first diagnosis of active TB, termination of health insurance coverage, death, or the end of the study period, whichever came first. The year before the year of TB diagnosis was used for the evaluation of the drug exposure. […]
We assessed the covariates from the cohort entry to the year before the index date. Covariates assessed included: demographics, pre-existing chronic diseases, medications used, and proxy indicators for the lifestyle such as alcohol consumption or smoking related illness, and obesity or malnutrition. […]

Structure (SMILES): COC(=O)C1=C(C)NC(C)=C(C(=O)OC)C1c1ccccc1[N+](=O)[O-] [Nifedipine, nifedipine]
- IR % (case/person-years) (average daily dose 10 mg): 0% (0/694)
- IR % (case/person-years) (average daily dose 20 mg): 0.34% (6/1,755)
- IR % (case/person-years) (average daily dose 30 mg): 0.40% (6/1,499)
